The METLIN SMRT retention time set (Domingo-Almenara et al. 2019)

Assay: gradient 5% acetonitrile 3 min, to 50% in 2 min, to 85% in 15 min, held 3 min, 100 µL/min
Conditions: column: Zorbax Extend-C18 2.1 x 50 mm; eluents: water / acetonitrile, 0.1% formic acid
How it was run: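 Each retention time is based on an adduct peak selected computationally and verified by manual inspection. Measurements used HPLC–quadrupole time-of-flight mass spectrometry in positive and negative ionization mode on mixtures of ~100 pure standards. Chromatography ran on a Zorbax Extend-C18 column (2.1 × 50 mm, 1.8 μm) at 100 μL/min with water and acetonitrile, each containing 0.1% formic acid, and dead and dwell volumes of 40 μL and 900 μL.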

| Structure (SMILES) | RP-LC retention time [s] |
| --- | --- |
| Cc1cccc(CN2CCN(C3CCN(C(=O)Nc4ccccc4)CC3)C2=O)c1 | 851 |
| CCN1C(=O)CN(C(=O)c2cccs2)CC12CCOCC2 | 631 |
| COc1ccccc1CN1CCc2nc(N3CCN(c4ncccn4)CC3)ncc2C1 | 716 |
| COc1ccc(C2Cn3nnc(-c4nc(-c5ccc(F)c(Br)c5)no4)c3CO2)cc1 (configuration not stated) | 1180 |
| O=C(NC1CCCc2ccccc21)c1ccc(-n2nc(N3CCCC3)ccc2=O)cc1 (configuration not stated) | 920 |
| O=S(=O)(Cc1ccccc1)N1CCCC(c2nnnn2-c2ccccc2)C1 (configuration not stated) | 905 |
| CCN1CCN(CCCNC(=O)C2CCCN(c3nc4cccnc4s3)C2)CC1 (configuration not stated) | 552 |
| O=C(COc1ncccn1)Nc1ccc(F)c(F)c1 | 665 |
| COC(=O)c1ccc2c(=O)n(CCc3ccccc3)c(N3CCC(C)CC3)nc2c1 | 1380 |
| N#Cc1ccc(C(=O)N2CC(n3cc(C(=O)NCC4CC4)nn3)C2)cc1 | 701 |
| CCOCCCNC(=O)C1c2ccccc2C(=O)N(C)C1c1cccs1 (configuration not stated) | 722 |
| CCN(CC)CCCC(C)Nc1ccnc(/C=C/c2ccc(Cl)cc2)c1 (configuration not stated) | 602 |
| O=C(CN1CCN(c2ccccc2F)C1=O)Nc1ccc(OC(F)(F)F)cc1 | 855 |
| O=C(CSc1ccc(N2CCCC(C(=O)NC3CC3)C2)nn1)Nc1ccc(F)cc1 (configuration not stated) | 629 |
| O=C(Cn1nc2c3cc(-c4ccc(Cl)cc4)nn3ccn2c1=O)Nc1cc(F)ccc1F | 1020 |
| O=C(Cn1nc(C(=O)N2CCCC2)c2ccccc21)NCc1cccnc1 | 580 |
| CCOC(=O)C(=O)NCc1nc(COc2ccc(OC)cc2)no1 | 716 |
| CCN1CCN(C(=O)c2n[nH]c3c2CC(C)CC3)CC1 (configuration not stated) | 567 |
| O=C(O)CCC(=O)Nc1ccccc1Cl | 616 |

Results, then the compound that gave them:

| RP-LC retention time [s] | Structure (SMILES) |
| --- | --- |
| 616 | Cc1noc(C)c1S(=O)(=O)N1CCC(n2c(C)cnc2-c2cccnc2)C1 (configuration not stated) |
| 914 | COc1ccc(-c2nnc(COc3cccc(NC(=O)c4ccsc4)c3)o2)cc1 |
| 784 | CCOC(=O)CNC(=O)N1CCCC1c1cccc(C)c1 (configuration not stated) |
| 815 | CC1(C(=O)NCc2ccccc2)CN(S(C)(=O)=O)CC(=O)N1Cc1cccc(Br)c1 (configuration not stated) |
| 654 | CCOc1ccc(S(=O)(=O)N2CCC(C(=O)N3CCN(C)CC3)CC2)cc1C |
| 610 | COCCN1C(=O)c2cccn2CC1CNC(=O)c1cnc(C)cn1 (configuration not stated) |
| 943 | CCSc1nnc(-c2nn(C)c3c2CN(S(=O)(=O)c2ccc(F)cc2)CC3)n1CC |
| 622 | COc1ccccc1-c1c(C)nn2c(SCC(=O)NCCN(C)C)cc(C)nc12 |
| 1040 | Cc1nn(C)c2nc(OC(C)C(=O)NCc3cccs3)cc(-c3ccccc3)c12 (configuration not stated) |
| 792 | CCN(c1cccc(C)c1)S(=O)(=O)c1cc(-c2[nH]ncc2C(=O)N(C)C)oc1C |
| 567 | CCN1CCN(CCCNC(=O)c2ccc(CS(=O)c3ccccc3Cl)o2)CC1 (configuration not stated) |
| 1080 | CC(=O)c1cc2c(cc1NC(=O)c1ccc(COc3ccccc3)o1)OCO2 |
| 1200 | Cc1cccc(N2CCN(c3ccc4cc(S(=O)(=O)N5CCC(C)CC5)ccc4n3)CC2C)c1 (configuration not stated) |
| 618 | CCOc1ccc(CNc2nc3ccncc3n(CC)c2=O)cc1OC |
| 898 | Cc1cc(C)cc(Nc2ncccc2S(N)(=O)=O)c1 |
| 735 | CC(C)NC(=O)Cn1cccc(-c2nc(-c3ccc(F)cc3)no2)c1=O |
| 898 | CN(C)c1ccc(N2C=C(C(=O)N3CCCCC3)S(=O)(=O)c3ccccc32)cc1 |
| 621 | CCc1ccc2[nH]c3c(c(=O)c2c1)CN(CC(=O)NCc1ccccc1OC)CC3 |
